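Tested at 5 concentrations; 48 h exposure; 96-well plates; endpoints linearly interpolated, else capped at highest concentration. GI50: concentration for 50% inhibition of growth. TGI: concentration producing complete growth inhibition.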
How the values were obtained:
Experiment in all cases: growth of human tumour cells (NCI), 48 h
[1] = tested on: 786-0 renal
[2] = tested on: A549 NSCLC
[3] = tested on: CAKI-1 renal
[4] = tested on: HT29 colon
[5] = tested on: IGROV1 ovarian
[6] = tested on: MDA-MB-435
[7] = tested on: NCI-H460 lung
[8] = tested on: OVCAR-5 ovarian
[9] = tested on: SF-295 CNS
[10] = tested on: SK-MEL-2 melanoma
[11] = tested on: SR leukemia
[12] = tested on: SW-620 colon
[13] = tested on: TK-10 renal

COc1ccccc1NC(=S)Nc1cccc(C)n1
TGI [1]: > 100 µM
TGI [2]: > 100 µM
TGI [3]: > 100 µM
TGI [4]: > 100 µM
TGI [5]: > 100 µM
TGI [6]: > 100 µM
TGI [7]: > 100 µM
TGI [8]: > 100 µM
TGI [9]: > 100 µM
TGI [10]: > 100 µM
TGI [11]: > 100 µM
TGI [12]: > 100 µM
TGI [13]: > 100 µM

CNC(=O)C(C)NC(=O)C(Cc1ccccc1)NC(=O)OC(C)(C)C (centres undefined)
TGI [1]: > 100 µM
TGI [2]: > 100 µM
TGI [3]: > 100 µM
TGI [4]: > 100 µM
TGI [5]: > 100 µM
TGI [6]: > 100 µM
TGI [7]: > 100 µM
TGI [8]: > 100 µM
TGI [9]: > 100 µM
TGI [10]: > 100 µM
TGI [11]: > 100 µM
TGI [12]: > 100 µM
TGI [13]: > 100 µM

CC1=C/C(=N\N(C)C)C(C(O)(C(F)(F)F)C(F)(F)F)C(C)(C)C1 (centres undefined)
TGI [1]: > 100 µM
TGI [2]: > 100 µM
TGI [3]: > 100 µM
TGI [4]: > 100 µM
TGI [5]: > 100 µM
TGI [6]: > 100 µM
TGI [7]: > 100 µM
TGI [8]: > 100 µM
TGI [9]: > 100 µM
TGI [10]: > 100 µM
TGI [11]: > 100 µM
TGI [12]: > 100 µM
TGI [13]: > 100 µM

C/C(=C\c1csc(C)n1)[C@@H]1C[C@@H]2O[C@]2(C)CCC[C@H](C)[C@H](O)[C@@H](C)C(=O)C(C)(C)[C@@H](O)CC(=O)O1 (tested in a mixture with another compound)
TGI [1]: > 1 µM
TGI [2]: > 1 µM
TGI [3]: > 1 µM
GI50 [4]: 0.000721 µM
TGI [4]: > 0.378 µM
TGI [5]: > 1 µM
TGI [6]: 0.00284 µM
TGI [7]: > 1 µM
TGI [8]: > 1 µM
TGI [9]: 0.0369 µM
TGI [10]: > 0.464 µM
TGI [11]: > 0.239 µM
TGI [12]: > 1 µM
TGI [13]: > 1 µM

O=C(O)c1ccccc1C(=O)OCC1CCCN2CCCCC12 (centres undefined)
TGI [1]: > 100 µM
TGI [2]: > 100 µM
TGI [3]: > 100 µM
TGI [4]: > 100 µM
TGI [5]: > 100 µM
TGI [6]: > 100 µM
TGI [7]: > 100 µM
TGI [8]: > 100 µM
TGI [9]: > 100 µM
TGI [10]: > 100 µM
TGI [11]: > 100 µM
TGI [12]: > 100 µM
TGI [13]: > 100 µM

O=C(n1[nH]c(=O)n(-c2ccc([N+](=O)[O-])cc2)c1=O)C(Cl)(Cl)Cl
TGI [1]: > 75 µM
TGI [2]: > 75 µM
TGI [3]: > 75 µM
TGI [4]: > 75 µM
TGI [5]: > 75 µM
TGI [6]: > 75 µM
TGI [7]: > 75 µM
TGI [8]: > 75 µM
TGI [9]: > 75 µM
TGI [10]: > 75 µM
TGI [11]: > 75 µM
TGI [12]: > 75 µM
TGI [13]: > 75 µM

CC/C(=C/OC)P1(=O)OC(C)(C)CN1C(C)(C)C (centres undefined)
TGI [1]: > 100 µM
TGI [2]: > 100 µM
TGI [3]: > 100 µM
TGI [4]: > 100 µM
TGI [5]: > 100 µM
TGI [6]: > 100 µM
TGI [7]: > 100 µM
TGI [8]: > 100 µM
TGI [9]: > 100 µM
TGI [10]: > 100 µM
TGI [11]: > 100 µM
TGI [12]: > 100 µM
TGI [13]: > 100 µM

Cc1ccc(S(=O)(=O)Oc2coc(CO)cc2=O)cc1
TGI [1]: 23.4 µM
TGI [2]: 28.1 µM
TGI [3]: 10.4 µM
TGI [4]: 30.4 µM
TGI [5]: 34.5 µM
TGI [6]: 30.7 µM
TGI [7]: 31.1 µM
TGI [8]: 31.8 µM
TGI [9]: 31.3 µM
TGI [10]: 57.6 µM
TGI [11]: > 85.5 µM
TGI [12]: 42 µM
TGI [13]: 44.2 µM

CCCN(CCC)C(=S)N/N=C/c1cccc(C)n1
TGI [1]: 1.37 µM
TGI [2]: 10.3 µM
TGI [3]: 4.65 µM
TGI [4]: > 100 µM
TGI [5]: 1.56 µM
TGI [6]: 28.8 µM
TGI [7]: 0.748 µM
TGI [8]: 47.2 µM
TGI [9]: 7.53 µM
TGI [10]: 26.4 µM
TGI [11]: 0.376 µM
TGI [12]: > 100 µM
TGI [13]: 0.832 µM

O=c1[nH]c2nccn2c(Cl)c1Br
TGI [1]: > 100 µM
TGI [2]: > 100 µM
TGI [3]: 40.7 µM
TGI [4]: 48.8 µM
TGI [5]: 45.4 µM
TGI [6]: 42 µM
TGI [7]: > 100 µM
TGI [8]: 49.1 µM
TGI [9]: > 100 µM
TGI [10]: 16.3 µM
TGI [11]: 48.7 µM
TGI [12]: 60.1 µM
TGI [13]: > 100 µM

CC1(C)C[C@H]2C3=CC[C@@H]4[C@@]5(C)CC[C@H](O)C(C)(C)[C@@H]5CC[C@@]4(C)[C@]3(C)C[C@@H](O)[C@@]23C[C@@H]1OC3=O
TGI [1]: > 100 µM
TGI [2]: > 100 µM
TGI [3]: > 100 µM
TGI [4]: > 100 µM
TGI [5]: > 100 µM
TGI [6]: > 100 µM
TGI [7]: > 100 µM
TGI [8]: > 100 µM
TGI [9]: > 100 µM
TGI [10]: > 100 µM
TGI [11]: > 100 µM
TGI [12]: > 100 µM
TGI [13]: > 100 µM

COCC1OCCN1C (centres undefined)
TGI [1]: > 100 µM
TGI [2]: > 100 µM
TGI [3]: > 100 µM
TGI [4]: > 100 µM
TGI [5]: > 100 µM
TGI [6]: > 100 µM
TGI [7]: > 100 µM
TGI [8]: > 100 µM
TGI [9]: > 100 µM
TGI [10]: > 100 µM
TGI [11]: > 100 µM
TGI [12]: > 100 µM
TGI [13]: > 100 µM

CC(C)CC(=O)OC[n+]1cccc(-c2c(COC(=O)NC(C)C)c(COC(=O)NC(C)C)c3n2CCC3)c1
TGI [1]: 97.7 µM
TGI [2]: > 100 µM
TGI [3]: 73.9 µM
TGI [4]: > 100 µM
TGI [5]: > 100 µM
TGI [6]: > 100 µM
TGI [7]: > 100 µM
TGI [8]: > 100 µM
TGI [9]: > 100 µM
TGI [10]: > 100 µM
TGI [11]: > 100 µM
TGI [12]: > 100 µM
TGI [13]: > 100 µM

CCN(CC)CCN1CCN=c2c3cc(OC)ccc3n3cnc4ccc1c2c43
TGI [1]: 1.72 µM
TGI [2]: 2.78 µM
TGI [3]: 2.23 µM
TGI [4]: 1.81 µM
TGI [5]: 2.45 µM
TGI [6]: 1.92 µM
TGI [7]: 0.724 µM
TGI [8]: 5.77 µM
TGI [9]: 2.32 µM
TGI [10]: 2.18 µM
TGI [11]: 1.64 µM
TGI [12]: 1.82 µM
TGI [13]: 4.93 µM

CCOC(=O)c1c(-c2ccc(Cl)cc2)c(C#N)c(=S)n(C2OC(CO)C(O)C(O)C2O)c1-c1ccccc1 (centres undefined)
TGI [1]: 75.1 µM
TGI [2]: > 100 µM
TGI [3]: 82.6 µM
TGI [4]: 36.2 µM
TGI [5]: > 100 µM
TGI [6]: 48.6 µM
TGI [7]: 87.5 µM
TGI [8]: 40.8 µM
TGI [9]: 40.3 µM
TGI [10]: 50.2 µM
TGI [11]: > 100 µM
TGI [12]: 46.7 µM
TGI [13]: 84 µM

CCC/C(Cl)=N\OC(=O)Nc1ccc(Br)cc1
TGI [1]: 18.5 µM
TGI [2]: 45.2 µM
TGI [3]: 5.77 µM
TGI [4]: 44.1 µM
TGI [5]: 32.8 µM
TGI [6]: 28.7 µM
TGI [7]: 34.6 µM
TGI [8]: 27.8 µM
TGI [9]: 30.2 µM
TGI [10]: 28.9 µM
TGI [11]: 18.4 µM
TGI [12]: 5.52 µM
TGI [13]: 27.2 µM
